In series [1] the target is T1, Steroid 17-alpha-hydroxylase/17,20 lyase (Homo sapiens, UniProt P05093).
T1 sequence (P05093 whole entry): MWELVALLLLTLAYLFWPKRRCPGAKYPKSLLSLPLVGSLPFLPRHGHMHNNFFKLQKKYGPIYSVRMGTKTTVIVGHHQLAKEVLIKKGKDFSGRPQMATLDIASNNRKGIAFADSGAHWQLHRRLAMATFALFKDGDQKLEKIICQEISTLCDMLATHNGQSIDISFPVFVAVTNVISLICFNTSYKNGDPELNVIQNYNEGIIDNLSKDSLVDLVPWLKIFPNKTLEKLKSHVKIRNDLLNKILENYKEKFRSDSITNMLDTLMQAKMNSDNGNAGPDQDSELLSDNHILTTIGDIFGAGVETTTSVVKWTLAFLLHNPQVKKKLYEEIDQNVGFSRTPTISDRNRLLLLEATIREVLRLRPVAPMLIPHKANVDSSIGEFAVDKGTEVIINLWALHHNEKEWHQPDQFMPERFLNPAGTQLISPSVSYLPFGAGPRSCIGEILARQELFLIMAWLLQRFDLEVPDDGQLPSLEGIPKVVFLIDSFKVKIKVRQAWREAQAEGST
The series can be described thus: Inhibition of human CYP17 expressed in Escherichia coli coexpressing NADPH-P450 reductase at 0.2 uM.

Series [2] concerns the target T1, Steroid 17-alpha-hydroxylase/17,20 lyase. As to the kind of experiment: Inhibition of human CYP17 expressed in Escherichia coli coexpressing NADPH-P450 reductase at 2 uM.
Series [3] has as its target T2, CYP11B1 (Homo sapiens, UniProt P15538).
T2 sequence (P15538 whole entry): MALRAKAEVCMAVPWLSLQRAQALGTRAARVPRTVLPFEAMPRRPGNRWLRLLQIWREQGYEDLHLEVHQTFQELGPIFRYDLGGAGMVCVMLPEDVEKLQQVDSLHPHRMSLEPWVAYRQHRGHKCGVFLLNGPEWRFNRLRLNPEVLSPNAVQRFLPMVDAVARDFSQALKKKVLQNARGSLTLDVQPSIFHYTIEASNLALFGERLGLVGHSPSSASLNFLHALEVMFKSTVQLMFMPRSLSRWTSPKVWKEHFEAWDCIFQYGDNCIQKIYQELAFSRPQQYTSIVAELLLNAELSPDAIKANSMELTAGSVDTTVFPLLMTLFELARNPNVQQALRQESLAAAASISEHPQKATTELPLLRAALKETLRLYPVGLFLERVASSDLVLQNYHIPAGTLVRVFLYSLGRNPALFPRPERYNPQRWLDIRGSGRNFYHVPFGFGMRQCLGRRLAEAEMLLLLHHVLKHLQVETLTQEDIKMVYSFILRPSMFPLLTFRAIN
As to the kind of experiment: Inhibition of recombinant CYP11B1 expressed in expressed in V79MZh11B1 cells at 2 uM. The format is cell-based. The note with it: hamster, V79MZh11B1 cells expressing recombinant CYP11B1.

Series [4] addresses T2, CYP11B1. As to the kind of experiment: Inhibition of recombinant CYP11B1 expressed in V79MZh11B1 cells at 0.2 uM. The format is cell-based. The conditions noted are these: hamster, V79MZh11B1 cells expressing recombinant CYP11B1.
In series [5] the target is T3, Cytochrome P450 11B1, mitochondrial (Homo sapiens, UniProt P15538).
T3 sequence (P15538 whole entry): T2 sequence (P15538 whole entry)
As to the kind of experiment: Inhibition of recombinant CYP11B1 expressed in expressed in V79MZh11B1 cells. The format is cell-based.

Series [6] addresses T4, CYP3A4 (Homo sapiens, UniProt P08684). As to the kind of experiment: (§1) Inhibition of recombinant CYP3A4 expressed in baculovirus-infected insect microsome at 1 uM. The note with it: human. The format is ADME.
The target in series [7] is T4, CYP3A4. As to the kind of experiment: Inhibition of recombinant CYP3A4 expressed in baculovirus-infected insect microsome at 10 uM. The format is ADME.
Series [8] concerns the target T1, Steroid 17-alpha-hydroxylase/17,20 lyase. As to the kind of experiment: Inhibition of human CYP17 expressed in Escherichia coli coexpressing NADPH-P450 reductase.
Series [9] shares this target. As to the kind of experiment: Ratio of ketoconazole to drug against IC50 for human CYP17 expressed in Escherichia coli coexpressing NADPH-P450 reductase.
Another series deals with Cytochrome P450 3A4 (Homo sapiens, UniProt P08684). The description is as §1. Type of series: ADME.
Cytochrome P450 3A4, sequence (P08684 whole entry): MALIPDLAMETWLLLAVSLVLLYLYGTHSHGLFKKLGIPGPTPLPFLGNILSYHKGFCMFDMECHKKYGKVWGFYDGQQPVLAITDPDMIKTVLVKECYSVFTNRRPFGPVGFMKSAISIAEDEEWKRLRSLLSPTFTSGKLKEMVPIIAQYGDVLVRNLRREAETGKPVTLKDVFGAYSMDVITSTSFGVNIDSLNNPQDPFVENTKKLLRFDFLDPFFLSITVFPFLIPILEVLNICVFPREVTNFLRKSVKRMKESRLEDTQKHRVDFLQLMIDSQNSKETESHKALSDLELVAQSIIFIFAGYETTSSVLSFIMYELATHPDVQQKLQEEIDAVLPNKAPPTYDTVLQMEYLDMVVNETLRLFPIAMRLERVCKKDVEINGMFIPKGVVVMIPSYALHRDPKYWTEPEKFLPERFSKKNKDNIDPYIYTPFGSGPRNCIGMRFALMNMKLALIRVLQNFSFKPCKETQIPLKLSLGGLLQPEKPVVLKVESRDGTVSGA

pIC50: −log10 of the molar value.

T4 sequence (P08684 whole entry): as above

As a reminder, the inhibition is the percentage by which the read-out fell short of the control. In series [1], `CCOc1ccc(-c2ccc(C(CC)n3ccnc3)cc2)cc1` (racemic) displayed an inhibition at 0.2 µM of 3%. The molecule also had an inhibition at 2 µM in series [2] of 25%.
Turning to `CC(=O)N1CCN(c2ccc(OCC3COC(Cn4ccnc4)(c4ccc(Cl)cc4Cl)O3)cc2)CC1` (stereo not given) [KETOCONAZOLE], at CYP11B1 [3], the inhibition at 2 µM worked out at 93%. The inhibition at 0.2 µM at CYP11B1 [4] is 61%.
The term pIC50 denotes the IC50 on a negative log10 scale, so that one unit is a factor of ten. `C[C@]12CC[C@H](O)CC1=CC[C@@H]1[C@@H]2CC[C@]2(C)C(c3cccnc3)=CC[C@@H]12` [ABIRATERONE]: the pIC50 in series [5] is 5.79.
As to `CCC(c1ccc(-c2ccc(O)c(O)c2)cc1F)n1ccnc1` (racemic), the values for the inhibition at 2 µM (on CYP11B1 [3]; in series [2]) were 90% and 95%, respectively. The inhibition at 0.2 µM in [1] was found to be 69%; on CYP11B1 [4] it was 51%. Moreover, the inhibition at 1 µM on CYP3A4 [6] came to 93%. The inhibition at 10 µM at CYP3A4 [7] was 100%. This molecule also showed a pIC50 in series [8] of 7.28.
In the case of `CCC(c1ccc(-c2ccc(O)c(O)c2)cc1)n1ccnc1` (racemic), the inhibition at 2 µM on CYP11B1 [3] came out at 92%; in series [2] it was 91%. The values for the inhibition at 0.2 µM (in series [1]; on CYP11B1 [4]) were 56% and 38%, respectively. For the same molecule, at CYP3A4 [6], the inhibition at 1 µM was 91%. At CYP3A4 [7], the inhibition at 10 µM worked out at 99%. In addition, the pIC50 in [8] was 6.82.
On to `CCC(c1ccc(-c2cccc(O)c2)cc1)n1ccnc1` (racemic), for which the values for the inhibition at 2 µM (at CYP11B1 [3]; in series [2]) were 95% and 89%, respectively. Besides, the inhibition at 0.2 µM was found to be 55% in series [1] and 90% on CYP11B1 [4]. Further, the inhibition at 1 µM at CYP3A4 [6] is 84%. Moreover, the inhibition at 10 µM on CYP3A4 [7] is 88%. The same molecule showed a pIC50 in series [8] of 6.79.
Regarding `CCC(c1ccc(-c2ccc(O)c(C)c2)cc1)n1ccnc1` (racemic), the results for the inhibition at 2 µM (on CYP11B1 [3]; in [2]) were 96% and 89%, respectively. Moreover, the inhibition at 0.2 µM in series [1] is 45%; on CYP11B1 [4] it was 91%. On CYP3A4 [6], the inhibition at 1 µM amounted to 93%. Moreover, the inhibition at 10 µM at CYP3A4 [7] stood at 98%. Further, the “Ratio IC50” value in [9] came out at 50. Besides, in series [8], the pIC50 was 6.58.
Consider `CCC(c1ccc(-c2ccc(O)cc2)cc1)n1ccnc1` (racemic), for which the inhibition at 2 µM at CYP11B1 [3] is 95%; in [2], 80%. The inhibition at 0.2 µM in series [1] is 27%; at CYP11B1 [4], 89%. Further, the inhibition at 1 µM on CYP3A4 [6] was 87%. The inhibition at 10 µM at CYP3A4 [7] is 91%. This molecule gave a pIC50 in [8] of 6.64.
As for `CCC(c1ccc(-c2cc(O)cc(O)c2)cc1)n1ccnc1` (racemic), the inhibition at 2 µM came out at 97% on CYP11B1 [3] and 90% in series [2]. For the same molecule, the inhibition at 0.2 µM in series [1] is 48%; at CYP11B1 [4], 93%. Moreover, the inhibition at 1 µM on CYP3A4 [6] stood at 90%. In addition, on CYP3A4 [7], the inhibition at 10 µM turned out to be 99%. Moreover, the negative logarithm of the IC50 (pIC50) in series [8] is 6.71.
`COc1cccc(-c2ccc(C(C)n3ccnc3)cc2)c1` (racemic) gave an inhibition at 0.2 µM in [1] of 8%. This molecule also yielded an inhibition at 2 µM in series [2] of 59%.
In turn, `CCC(c1ccc(-c2ccc(OC)c(OC)c2)cc1)n1ccnc1` (racemic) displayed an inhibition at 0.2 µM in [1] of 9%. Also, 2 µM produced 58% inhibition in [2]. Further, at CYP3A4 [6], the inhibition at 1 µM was 70%. Also, the inhibition at 10 µM at CYP3A4 [7] amounted to 93%.
Turning to `CCC(c1ccc(-c2cccc(OC)c2)cc1)n1ccnc1` (racemic), the figures for the inhibition at 2 µM (on CYP11B1 [3]; in series [2]) were 96% and 83%, respectively. Besides, the figures for the inhibition at 0.2 µM (in series [1]; at CYP11B1 [4]) were 31% and 84%, respectively. Besides, at CYP3A4 [6], the inhibition at 1 µM turned out to be 80%. The inhibition at 10 µM on CYP3A4 [7] was determined as 92%. This molecule also had a pIC50 in series [8] of 6.73.
As to `CCC(c1ccc(-c2ccc(O)c(Cl)c2)cc1)n1ccnc1` (racemic), the inhibition at 2 µM on CYP11B1 [3] amounted to 96%; in series [2], 89%. The inhibition at 0.2 µM in series [1] worked out at 44%; on CYP11B1 [4], 89%. Also, the pIC50 at Cytochrome P450 3A4 is 7.04; in series [8], 6.66. Moreover, on CYP3A4 [7], the inhibition at 10 µM turned out to be 99%. Further, the “Ratio IC50” value in series [9] came out at 50.
For `CCC(c1ccc(-c2ccc(O)cc2)cc1F)n1ccnc1` (racemic), the inhibition at 2 µM at CYP11B1 [3] was found to be 97%; in series [2], 94%. In addition, the inhibition at 0.2 µM in [1] was found to be 64%; on CYP11B1 [4], 89%. Further, on CYP3A4 [6], the inhibition at 1 µM came to 86%. Further, the inhibition at 10 µM on CYP3A4 [7] was 91%. Besides, the pIC50 in series [8] was 7.05.
For `CCC(c1ccc(-c2cc(C)c(O)c(C)c2)cc1)n1ccnc1` (racemic), the values for the inhibition at 2 µM (on CYP11B1 [3]; in [2]) were 85% and 78%, respectively. In addition, the results for the inhibition at 0.2 µM (in series [1]; at CYP11B1 [4]) were 28% and 45%, respectively. Also, the inhibition at 1 µM at CYP3A4 [6] was found to be 94%. The inhibition at 10 µM on CYP3A4 [7] was 100%. Moreover, in [9], the “Ratio IC50” value amounted to 50. The molecule also showed a pIC50 in series [8] of 6.42.
As for `COc1ccc(-c2ccc(C(C)n3ccnc3)cc2)cc1` (racemic), 0.2 µM produced 9% inhibition in series [1]. The molecule further had an inhibition at 2 µM in series [2] of 40%.
For the molecule `CCC(c1ccc(-c2ccc(OC)cc2)cc1)n1ccnc1` (racemic), in [1], the inhibition at 0.2 µM was found to be 2%. The molecule also had an inhibition at 2 µM in series [2] of 36%. Moreover, the inhibition at 1 µM on CYP3A4 [6] was determined as 73%. Besides, the inhibition at 10 µM at CYP3A4 [7] is 80%.

These data come from ChEMBL document CHEMBL1152894, “Novel CYP17 inhibitors: synthesis, biological evaluation, structure-activity relationships and modelling of methoxy- and hydroxy-substituted methyleneimidazolyl biphenyls” (Eur J Med Chem, 2009).
